In BindingDB's records for patent US20250236619 (Chia Tai Tianqing Pharmaceutical Group Co., 2025):

Target: Mitogen-activated protein kinase kinase kinase kinase 1 (Homo sapiens, UniProt Q92918)
Experiment: Assay for In Vitro Inhibitory Activity Against HPK1 Kinase
Method: A kinase buffer (Enzymatic buffer 5×) was diluted to 1×, and 10 mM MgCl2, 1 mM DTT, and 0.005% Tween 20 were added. A 100 ng/μL HPK1 (Life technology) stock solution was diluted with the kinase buffer to obtain a 1.67×, 1.67 ng/μL working solution (final concentration: 1 ng/μL), and the working solution was seeded in a 384-well plate at 6 μL/well. Different compounds dissolved in DMSO were added to the wells using a nanoliter pipettor to obtain final concentrations of the compounds of 1000 nM to 0.244 nM (4-fold serial dilution, 7 concentrations in total), and blank control wells (without enzyme) and negative control wells (with enzyme, plus vehicle DMSO) were set; the wells were set in duplicate. After the enzyme and the compounds were incubated at room temperature for 1 h, a 5×, 5 mM ATP dilution (final concentration: 1 mM) in the kinase buffer was mixed with a 5×, […] (Cisbio, STK Substrate 1-biotin; final concentration: 500 nM) in equal volume, and the mixture was added to the plate at 4 µL/well. The plate was sealed with a film and then incubated at room temperature for 2 h. An assay antibody solution was prepared by mixing the antibody STK Antibody-cryptate (Cisbio, 5 μL/test) and a 4×, 500 nM Streptavidin-XL665 (Cisbio; final concentration: 125 nM) in equal volume and added to the plate at 10 μL/well. The plate was incubated at room temperature for 1 h. The signal values ([…]) were measured using a PE Envision multimode microplate reader, and IC50 was calculated by four-parameter fitting.

Mitogen-activated protein kinase kinase kinase kinase 1, sequence (Q92918 whole entry): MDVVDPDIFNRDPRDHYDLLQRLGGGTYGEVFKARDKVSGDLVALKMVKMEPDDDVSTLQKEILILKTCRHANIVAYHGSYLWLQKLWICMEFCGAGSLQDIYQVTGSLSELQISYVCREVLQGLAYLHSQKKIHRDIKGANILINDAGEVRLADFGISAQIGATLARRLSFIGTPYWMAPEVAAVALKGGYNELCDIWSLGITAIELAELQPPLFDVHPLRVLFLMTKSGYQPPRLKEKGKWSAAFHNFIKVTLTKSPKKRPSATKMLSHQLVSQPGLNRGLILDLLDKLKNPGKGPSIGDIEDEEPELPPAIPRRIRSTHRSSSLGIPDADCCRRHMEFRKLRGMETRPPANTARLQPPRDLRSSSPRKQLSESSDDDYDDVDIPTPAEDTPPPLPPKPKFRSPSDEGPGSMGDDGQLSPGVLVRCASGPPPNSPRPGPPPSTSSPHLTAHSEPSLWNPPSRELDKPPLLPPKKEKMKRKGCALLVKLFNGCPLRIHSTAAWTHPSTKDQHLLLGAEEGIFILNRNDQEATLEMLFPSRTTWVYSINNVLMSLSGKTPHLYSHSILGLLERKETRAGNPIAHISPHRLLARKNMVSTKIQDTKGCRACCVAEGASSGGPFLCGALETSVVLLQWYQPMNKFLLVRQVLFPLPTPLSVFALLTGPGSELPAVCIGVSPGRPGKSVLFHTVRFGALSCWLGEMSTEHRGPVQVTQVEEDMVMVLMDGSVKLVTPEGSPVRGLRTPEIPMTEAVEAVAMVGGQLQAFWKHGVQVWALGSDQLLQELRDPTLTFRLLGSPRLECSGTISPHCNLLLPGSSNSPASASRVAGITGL

SMILES	IC50 [nM]
CN(C)Cc1nc(Nc2ccc(-c3cnn4ccc5occc5c34)c3c2C(=O)NC3)ccc1C1CCN(C)CC1 [US20250236619, Compound I-83]	2
CN(C)Cc1nc(Nc2ccc(-c3cnn4ccc5occc5c34)c3c2C(=O)NC3)ccc1C1CCCO1 (stereo not drawn) [US20250236619, Compound I-64]	2.9
CN(C)Cc1nc(Nc2cnc(-c3cnn4ccc5occc5c34)c3c2C(=O)NC3)ccc1N1CCOCC1 [US20250236619, Compound I-47]	4.7
CN(C)Cc1nc(Nc2ccc(-c3ccnc4c3c3c(n4C)CCC3)c3c2C(=O)NC3)ccc1C1CCN(C)C(=O)C1 (stereo not drawn) [US20250236619, Compound I-84]	2.6
CN(C)Cc1nc(Nc2ccc(-c3cnc4ccc5occc5n34)c3c2C(=O)NC3)ccc1N1CCCC1=O [US20250236619, Compound I-52]	36
CN(C)Cc1nc(Nc2cnc(-c3nnc4ccc5c(n34)CCC5)c3c2C(=O)NC3)ccc1C1CCOCC1 [US20250236619, Compound I-25]	32
CN(C)Cc1nc(Nc2ccc(-c3cnn4ccc5occc5c34)c3c2C(=O)NC3)ccc1C1CC(=O)N(C)C1 (stereo not drawn) [US20250236619, Compound I-59]	2.3
CN(C)Cc1nc(Nc2ccc(-c3cnc4cnc5occc5n34)c3c2C(=O)NC3)ccc1C1CCN(C)CC1 [US20250236619, Compound I-80]	2.8
CN(C)Cc1nc(Nc2cnc(-c3cnn4c3CC3(CC3)C4)c3c2C(=O)NC3)ccc1C1CCOCC1 [US20250236619, Compound I-55]	15
CN(C)Cc1nc(Nc2ccc(-c3cnc4cnc5occc5n34)c3c2C(=O)NC3)ccc1C1CCCO1 (stereo not drawn) [US20250236619, Compound I-65]	21
[2H]C([2H])(c1nc(Nc2cnc(-c3ccnc4c3c3c(n4C)CCC3)c3c2C(=O)NC3)ccc1C1CCOCC1)N(C)C [US20250236619, Compound I-17]	1.7
CN(C)Cc1nc(Nc2ccc(-c3cnn4ccc5occc5c34)c3c2C(=O)NC3)ccc1N1CCN(C)C(=O)C1 [US20250236619, Compound I-76]	1.8
CN(C)Cc1nc(Nc2ccc(-c3cnc4ccc5occc5n34)c3c2C(=O)NC3)ccc1C1CCN(C)C(=O)C1 (stereo not drawn) [US20250236619, Compound I-66]	2.5
[2H]C([2H])(c1nc(Nc2ccc(-c3cnn4c3CC3(CC3)C4)c3c2C(=O)NC3)ccc1C1CCOCC1)N(C)C [US20250236619, Compound I-53]	2.7
CN(C)Cc1nc(Nc2cnc(-c3cnn4ccc5occc5c34)c3c2C(=O)NC3)ccc1C1CCOCC1 [US20250236619, Compound I-46]	2.1
O=C1NCc2c(-c3cnn4ccc5occc5c34)ccc(Nc3ccc(N4CCOCC4)c([C@H]4CCCN4)n3)c21 [US20250236619, Compound I-57]	17
CN(C)Cc1nc(Nc2ccc(-c3cnc4cnc5occc5n34)c3c2C(=O)NC3)ccc1C1CC(=O)N(C)C1 (stereo not drawn) [US20250236619, Compound I-58]	5.6
CN(C)Cc1nc(Nc2ccc(-c3cnn4c3CC3(CC3)C4)c3c2C(=O)NC3)ccc1C1CCOCC1 [US20250236619, Compound I-34]	2.1
CN(C)Cc1nc(Nc2ccc(-c3cnc4cnc5occc5n34)c3c2C(=O)NC3)ccc1C1CCOCC1 [US20250236619, Compound I-48]	2.6
CN(C)Cc1nc(Nc2ccc(-c3ncnc4[nH]c5c(c34)CCC5)c3c2C(=O)NC3)ccc1C1CCOCC1 [US20250236619, Compound I-24]	11
CN(C)Cc1nc(Nc2ccc(-c3cnc4cnc5occc5n34)c3c2C(=O)NC3)ccc1C1CCOC1 (stereo not drawn) [US20250236619, Compound I-54]	6.6
CC(=O)N(C)c1ccc(Nc2ccc(-c3cnn4ccc5occc5c34)c3c2C(=O)NC3)nc1CN(C)C [US20250236619, Compound I-70]	7.5
CN(C)Cc1nc(Nc2ccc(-c3cnn4c3CC3(CC3)C4)c3c2C(=O)NC3)ccc1C1CCN(C)C(=O)C1 (stereo not drawn) [US20250236619, Compound I-67]	4.6
CN(C)Cc1nc(Nc2ccc(-c3cnc4ccc5occc5n34)c3c2C(=O)NC3)ccc1N1CCN(C)C1=O [US20250236619, Compound I-50]	29
CN(C)Cc1nc(Nc2ccc(-c3cnn4ccc5occc5c34)c3c2C(=O)NC3)ccc1C1CCOCC1 [US20250236619, Compound I-38]	1.7
CN(C)Cc1nc(Nc2ccc(-c3cnn4ccc5occc5c34)c3c2C(=O)NC3)ccc1-c1ccn(C)c(=O)c1 [US20250236619, Compound I-81]	2
CN(C)Cc1nc(Nc2ccc(-c3cnc4ccc5c(n34)CCO5)c3c2C(=O)NC3)ccc1C1CCOCC1 [US20250236619, Compound I-35]	6.4
CNCc1nc(Nc2ccc(-c3cnn4ccc5occc5c34)c3c2C(=O)NC3)sc1C1CCOCC1 [US20250236619, Compound I-85]	3.8
